From patent US20110158908A1, “CYCLOSPORIN A-BINDING PROTEIN” (Sapporo Medical University, priority 2007, published 2011)

Key:
[1] = tested on: CSABP gene expression in MH14 cells; test: Effect of anti-methylating agent on gene expression in MH14 cells (RT-PCR); assay type: cell-based, human; conditions: MH14 cells, 0.1, 0.5, 1.0 μM, 4 days
Procedure: 10^5 cells/well of MH14 cells (liver cancer cell line) were precultured in a 6 well plate with MH14 cell culture medium for 24 hours, and 5-aza-2′-deoxycytidine (Sigma) was then added thereto. Subsequently, medium exchange was carried out every 24 hours with a medium to which the methylation inhibitor had been added, and the cells were collected after 4 days. The amount of 5-aza-2′-deoxycytidine added was 0, 0.1, 0.5, and 1.0 μM. Total RNA was recovered from the cells thus collected in accordance with a standard method using an RNeasy kit (Qiagen, Cat. 74104). This total RNA was subjected to a reverse transcription reaction in accordance with a standard method using a Transcriptor First Strand cDNA Synthesis Kit (Roche, Cat. 04379012001), and the cDNA thus obtained was used as a template. The primer employed the above-mentioned CSABP primer (SEQ ID Nos: 5 and 6), and a PCR reaction was carried out in a Gotaq® PCR system (Promega) at 95° C., 5 minutes×1 cycle, 95° C., 0.5 minutes, 55° C., 0.5 minutes, 72° C., 2.5 minutes×35 cycles, 72° C., 7 minutes×1 cycle. As a positive control, a reaction was carried out in the same manner using the RASSF1A primers RASSF1A transcript variant D 391 to 415 forward primer: 5′-[…]-3′ (SEQ ID No: 38) and RASSF1A transcript variant D 635 to 660 reverse primer: 5′-[…]-3′ (SEQ ID No: 39), which is a gene for which a relationship between expression and DNA methylation in a promoter region has been shown by Cui X et al., Hum Pathol. 2006; 37 (3): 298-311. As an internal control, a reaction was carried out in the same manner using the above-mentioned G6PDH primer (SEQ ID Nos: 20 and 21).

[2] = biological target: T1, recombinant full length CSABP protein (CSABP-FL) (Homo sapiens, UniProt Q9H6S0, S652N/T565S); test: Molecular association with CSABP by SPR (Biacore 3000); assay type: binding; conditions: read-out: dissociation constant KD with CSABP
T1 construct: pET-CSABP-FL and pET-CSABP-C (FL=full length, C=C terminal region (CSABP ORF: 193rd to 1430th amino acids)); made in house; host or cells: E. coli BL21 (DE3)
T1 sequence (Q9H6S0 1-1430 T565S/S652N): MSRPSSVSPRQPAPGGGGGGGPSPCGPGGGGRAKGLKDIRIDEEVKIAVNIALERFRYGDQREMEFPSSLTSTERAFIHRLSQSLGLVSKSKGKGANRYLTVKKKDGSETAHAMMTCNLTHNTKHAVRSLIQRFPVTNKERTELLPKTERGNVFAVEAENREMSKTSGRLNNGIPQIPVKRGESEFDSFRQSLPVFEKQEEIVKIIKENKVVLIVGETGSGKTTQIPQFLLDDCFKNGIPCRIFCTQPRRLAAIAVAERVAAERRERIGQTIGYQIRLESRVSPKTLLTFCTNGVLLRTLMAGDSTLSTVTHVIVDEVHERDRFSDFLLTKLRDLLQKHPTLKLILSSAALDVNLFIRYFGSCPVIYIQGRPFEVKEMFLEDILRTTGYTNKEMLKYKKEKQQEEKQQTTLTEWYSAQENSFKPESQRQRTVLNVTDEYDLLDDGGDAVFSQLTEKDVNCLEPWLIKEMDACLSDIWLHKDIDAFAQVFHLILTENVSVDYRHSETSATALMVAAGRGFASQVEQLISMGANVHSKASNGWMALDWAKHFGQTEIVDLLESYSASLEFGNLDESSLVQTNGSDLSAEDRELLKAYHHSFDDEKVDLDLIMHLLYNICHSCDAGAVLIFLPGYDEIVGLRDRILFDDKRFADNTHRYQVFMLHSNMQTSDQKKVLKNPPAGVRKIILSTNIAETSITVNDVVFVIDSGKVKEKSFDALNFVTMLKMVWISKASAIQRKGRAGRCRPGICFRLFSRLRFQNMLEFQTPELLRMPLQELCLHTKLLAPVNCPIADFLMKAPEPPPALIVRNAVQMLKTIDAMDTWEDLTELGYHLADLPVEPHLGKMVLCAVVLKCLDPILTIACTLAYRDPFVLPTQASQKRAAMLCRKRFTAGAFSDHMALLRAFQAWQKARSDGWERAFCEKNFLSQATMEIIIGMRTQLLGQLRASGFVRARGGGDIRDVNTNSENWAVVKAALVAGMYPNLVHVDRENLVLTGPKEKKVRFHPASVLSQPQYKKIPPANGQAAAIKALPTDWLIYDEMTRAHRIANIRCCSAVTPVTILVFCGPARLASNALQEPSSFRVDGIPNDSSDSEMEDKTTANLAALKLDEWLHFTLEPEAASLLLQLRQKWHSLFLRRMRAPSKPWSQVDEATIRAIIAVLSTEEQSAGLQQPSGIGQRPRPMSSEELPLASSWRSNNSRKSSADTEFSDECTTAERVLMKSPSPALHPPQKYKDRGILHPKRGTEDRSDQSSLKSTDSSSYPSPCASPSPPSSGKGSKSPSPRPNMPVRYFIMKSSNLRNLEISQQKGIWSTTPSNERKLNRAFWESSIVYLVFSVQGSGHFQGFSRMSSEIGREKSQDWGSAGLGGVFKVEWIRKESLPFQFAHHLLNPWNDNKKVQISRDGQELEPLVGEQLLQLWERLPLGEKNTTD
Procedure: Molecular association between recombinant full length CSABP protein (CSABP-FL) and CsA was evaluated by an SPR (surface plasmon resonance) method. SPR measurement employed Biacore 3000 (Biacore). A purified recombinant CSABP protein was immobilized on Biacore chip CM5 by an amine coupling method (amount immobilized about 10000).

[3] = tested on: CSABP expression in normal human liver cells; test: Induction of CSABP expression by inflammatory cytokine in normal human liver cells (real time PCR); assay type: cell-based; conditions: 8 hours
Procedure: Normal human liver cells (Primary Human Liver Hepatocyte Cells, DS PHARMA BIOMEDICAL CO., LTD., Cat. No. ABI-3716) were cultured in a 6 well plate at a density of 2×10^5 cells/well, and human IL-1β, TNFα, or IL-6 (all from BioSource) was added thereto to give a final concentration in the well of 1 pg/mL, 100 pg/mL, or 1 ng/mL respectively. 8 hours after the addition, the cells were collected, and expression of CSABP within the cells was quantitatively determined by real time PCR in the same manner as in Example 5 (2).

## Nc1ncn([C@H]2C[C@H](O)[C@@H](CO)O2)c(=O)n1 [5-aza-2′-deoxycytidine]
[1]
  amount of expression of the CSABP gene: increase
  cytotoxicity: no cytotoxicity was observed
  expression of RASSF1A (positive control gene): increased

## C=CC[C@@H]1/C=C(\C)C[C@H](C)C[C@H](OC)[C@H]2O[C@@](O)(C(=O)C(=O)N3CCCC[C@H]3C(=O)O[C@H](/C(C)=C/[C@@H]3CC[C@@H](O)[C@H](OC)C3)[C@H](C)[C@@H](O)CC1=O)[C@H](C)C[C@@H]2OC [FK506]
[2]
  Kd: 2500 nM

## IL-1β: human inflammatory cytokine (BioSource)
[3]; 1 pg/mL
  amount of expression of CSABP compared with the control: some increase

## IL-6: human inflammatory cytokine (BioSource)
[3]; 1 ng/mL
  amount of expression of CSABP compared with the control: some increase

## TNF-α
[3]; 100 pg/mL
  amount of expression of CSABP compared with the control: about 1.8 times
